Measured values published in US11420980B2, “Salt of pentacyclic compound and crystal thereof” (Eisai R&D Management Co., Ltd., priority 2019, dated 2022).

What was measured:
[1] = test system: acetylcholine (ACh) in cerebrospinal fluid (CSF); assay: Measurement of acetylcholine (ACh) in rat cerebrospinal fluid (CSF); type: in vivo; conditions: Fischer 344 male rats, oral once a day at 10 mg/kg for three days, CSF 24 hours after administration, LC-MS
Method: Measurement of Acetylcholine (ACh) in Rat Cerebrospinal Fluid (CSF)
Thus, the changes in acetylcholine in CSF were measured in order to determine the changes in intracerebral acetylcholine by the test compounds.
(2) Compound Administration
In this study Fischer 344 male rats (Charles River Laboratories Japan, Inc.) with a body weight of about 150 to 250 g were used. The test compounds were orally administered to the rats once a day at 10 mg/kg for three days. The vehicle used was 0.01 mol/L hydrochloric acid.
At 24 hours after the administration of the vehicle and the test compounds, the CSF was collected from cisterna magna in a tube containing AchE inhibitors under pentobarbital anesthesia. The collected CSF was centrifuged at 3500×g at 4° C. for 10 minutes and the supernatant was collected. The collected supernatant was frozen with liquid nitrogen, and then stored at −80° C.
(4) Measurement of Ach by LC-MS
To 10 μL of the CSF was added 50 μL of acetylcholine-d9 chloride (ACh-d9) at a final concentration of 0.34 nmol/L as an internal standard. […] The supernatant was collected and subjected to LC/MS ([…]), and Ach was detected as precursor ion at m/z 146.050 and as product ion at m/z 87.071 and ACh-d9 as an internal standard was detected as precursor ion at m/z 155.088 and as product ion at m/z 87.000.

[2] = test system: hippocampal vesicular acetylcholine transporter (VAChT); assay: Fimbria-fornix lesioned rat model: optical density in hippocampal VAChT; type: in vivo; conditions: fimbria-fornix lesioned rats, oral once a day after the operation, % of sham-operated group, mean±SEM, # significant vs vehicle (19.5 ± 6.4)
Method: (§1) Neuroprotective and Restorative Effect on Cholinergic Neurons Using Fimbria-Formix Lesioned Rat Model
(§2) (1) Preparation of Fimbria-Fornix Lesioned Rat Model
(§3) In this studs Sprague-Dawley male rats (Charles River Laboratories Japan, Inc.) with a body weight of about 250 to 350 g were used. The rat was anesthetized under the combination of three drugs: midazolam (2 mg/kg s.c.), medetomidine hydrochloride (0.15 mg/kg s.c.) and butorphanol tartrate (2.5 mg/kg s.c.) and fixed with a brain stereotaxis apparatus (Narishige Co., Ltd.). The cranial was exposed and a hole with 5 mm width was drilled in the skull from the median line 2 mm posterior to Bregma. A razor with 4 mm width was pierced into the Bregma in 5.5 mm depth to cut fimbria-fornix. […]
(§4) The prepared brain coronal frozen sections were stained with DAB (DAB PEROXIDASE SUBSTRATE KIT (Vector, SK-4100)) using a ChAT antibody (Santa Cruz, SC-20672) or a VAChT antibody (Merck Millipore, ABN100) as a primary antibody. The section image including the medial septal area or hippocampus as shown in “The mouse Brain in stereotaxic coordinates” (COMPACT THIRD EDITION, Keith B. J. Franklin & George Paxinos) was taken by an all-in-one fluorescence microscope (KEYENCE, BZ-X710) and ChAT positive cells of the medial septal area or optical density (OD) in hippocampal VAChT were measured by BZ analysis software (KEYENCE). […] Data are expressed as the mean±SEM. […]

[3] = test system: rat primary septal neuron culture; assay: Measurement of acetylcholine (ACh) release in the rat primary septal neuron culture system in the presence of NGF; type: cell-based; conditions: rat primary septal neurons, with NGF, one day after compound addition, HPLC
Description: Measurement of Acetylcholine (ACh) Release in the Rat Primary Septal Neuron Culture System in the Presence of NGF
(1) Rat Primary Septal Neuron Culture
The septal area was isolated from Sprague-Dawley (SD) rats (Charles River Laboratories Japan, Inc.) at a fetal age of 18 days, and cultured. Specifically, fetuses were aseptically removed from pregnant rats under isoflurane anesthesia. The brain was extracted from each fetus, and immersed in ice-cooled L-15 medium (11415-064. Thermo Fisher Scientific), The septal area was dissected from the extracted brain under a stereoscopic microscope. The dissected septal area was subjected to enzyme treatment in an enzyme solution containing 0.25% trypsin (15050-065. Thermo Fisher Scientific) and 0.01% DNase (D5025-1.50KU, Sigma) at 37° C. for 30 minutes, thereby dispersing the cells. In this case, the enzyme reaction was terminated by adding inactivated horse serum (26050-088. Thermo Fisher Scientific). The enzyme-treated solution was centrifuged at 1000 rpm for 3 minutes, and the supernatant was removed. A medium in an amount of 10 mL was added to the obtained cell mass. […]
One day after compound addition, an amount of ACh release was measured by HPLC in the following manner. […]

[4] = test system: Choline acetyltransferase (ChAT) mRNA; assay: Measurement of choline acetyltransferase (ChAT) mRNA expression levels in the rat septal area; type: in vivo; conditions: SD male rats, oral, 10 mg/kg, medial septum 24 hours after administration, qPCR
Method: Measurement of Choline Acetyltransferase (ChAT) mRNA Expression Levels in the Rat Septal Area
(§5) (1) Compound Administration
In this study, SD male rats (Charles River Laboratories Japan, Inc. with a body weight of about 250 to 350 g were used. The compound was dissolved in 0.01 mol/L hydrochloric acid, and orally administered.
At 24 hours after the administration of the compound, the whole brain tissue was collected under pentobarbital anesthesia. The medial septum was isolated from whole brain on ice and frozen with liquid nitrogen, and them stored at −80° C.
(3) Measurement of ChAT […] Expression Levels
For RNA purification, RNeasy Plus Mini Kit (#74136: QIAGEN) was used in this study. RNA purification was performed by the method described in the kit, After RNA purification, the total RNA concentration was measured by using QIAxpert Instrument (QIAGEN). cDNA was synthesized using SuperScript® VILO™ cDNA. Synthesis Kit (#11754: Thermo Fisher Scientific). The synthesis of cDNA was performed by the method described in the kit. […] Quantitative polymerase chain reaction (qPCR) was conducted using ABI PRISM® 7900HT (Thermo Fisher Scientific) by a fluorescence probe method. […]

[5] = test system: ChAT positive cells of the medial septal area; assay: Fimbria-fornix lesioned rat model: ChAT positive cells of the medial septal area; type: in vivo; conditions: fimbria-fornix lesioned rats, oral once a day after the operation, % of sham-operated group, mean±SEM, # significant vs vehicle (38.4 ± 5.0)
Method: as §1, §2, §3, §4

[6] = test system: ChAT positive cells of the medial septal area; assay: Evaluation in human tau P301S transgenic mouse (ChAT positive cells, medial septal area); type: in vivo; conditions: human tau P301S transgenic mice, oral once a day for three months (four- to seven-month-old), Dose: 5 mg/kg, mean±SEM, # significant vs vehicle (83.0 ± 5.8)
Description: Evaluation in Human Tau P301S Transgenic Mouse
as §5
In this study, the test compounds were orally administered to human tau P301S transgenic mice once a day for three months from four-month-old to seven-month-old. The vehicle used was 0.01 mol/L hydrochloric acid.
At the initial day of the administration (four-month-old) and at the next day of the final administration, mice of vehicle administration group and test compound administration group were anesthetized under pentobarbital (50 mg/kg, i.p.) and perfused with PBS. After the perfusion, the forebrain including the medial septal area was collected and fixed with 4% parafomaldehyde.
(3) Preparation of Brain Coronal Frozen Section
The collected forebrain including the medial septal area was immersed and shaken overnight in 4% paraformaldehyde. […]
The prepared brain coronal frozen sections were stained with DAB (DAB PEROXIDASE SUBSTRATE KIT (Vector, SK-4100)) using a ChAT antibody (Santa Cruz, SC-20672) as a primary antibody. The section image including the medial septal area as shown in “The mouse Brain in stereotaxic coordinates” (COMPACT THIRD EDITION, Keith B. J. Franklin & George Paxinos) was taken by an all-in-one fluorescence microscope (KEYENCE, […]) and […] positive cells around the major axis of the medial septal area were counted by BZ analysis software (KEYENCE). […] Data are expressed as the mean±SEM. […]

In the case of CN1CCc2c(sc3nc4n(c(=O)c23)-c2sccc2C(=O)N(C)C4)C1 [Reference Example 1, 5,10-dimethyl-5,6,9,10,11,12-hexahydropyrido[4″,3″:4′,5′]thieno[2′,3′:4,5]pyrimido[1,2-a]thieno[3,2-f][1,4]diazepine-4,13-dione], the “ACh concentration in CSF, percentage (% of control) versus vehicle administration group” value [1] is reported as 156.8%, the “OD in hippocampal VAChT (%) in test compound administration group” value [2] is reported as 66.1 ± 14.2^# % and the “compound concentration showing a 20% increase from the ACh concentration in the buffer of the control group” value [3] is reported as 0.1 µM. The “percentage of ChAT mRNA expression levels increased from the vehicle administration group” value [4] was 56.4%, the “Number of ChAT positive cells (%) in test compound administration group” value [5] was 74.1 ± 9.3^# % and the “Ratio (%) of number of ChAT positive cells compared to that in the initial administration” value [6] was 105.3 ± 4.3^# %.
